Experimental data from patent publication US11382347B2, “Natural cooling formulations” (WM. WRIGLEY JR. COMPANY, priority 2015, dated 2022).

Test: Sensory panel screening of natural coolants versus menthol in sugar solution (Example 1)
Assay type: in vivo, human
Conditions: 100 ppm in 5% sugar solution, 10 mL held 10 s, panel N=6; for Cooling Relative to 100 ppm Menthol: 9-point scale, menthol fixed as 5.0
Description: 100 ppm of naturally sourced menthyl lactate, menthyl succinate, and isopulegol were screened in 5% sugar solution for cooling and bitterness properties relative to 100 ppm menthol in 5% sucrose solution.
10 mL of each sample was orally evaluated by a panel (N=6) for 10 seconds, then expectorated. Cooling strength, flavor strength, and bitterness or off-taste was evaluated on a 9-point scale in comparison to 100 ppm menthol evaluated as a control, with 0 being the lowest and 9 being the highest measure on the scale. Subjects evaluated the coolant attributes at T0 (immediately after expectorating), 1, 2, 5 and 10 minute time points post expectoration.
Prior to the test, each subject calibrated their cooling and bitterness scale by performing the same evaluation on 10 mL of 100 ppm of L-menthol (prepared the same way as the natural coolants). The menthol solution was held in the mouth for 10 seconds as a calibration sample and the cooling strength and bitterness were fixed as 5.0 at the initial T0 time point.
Panelists were asked to rate the cooling and bitterness intensity of the compounds in solution, relative to the solution of 100 ppm of menthol, when tested in comparative screenings. The ratings are summarized in Table 1, showing the cooling and bitterness of the coolants compared to menthol.

Structure (SMILES)	Bitterness Relative to 100 ppm Menthol	Cooling Relative to 100 ppm Menthol
CC1CCC(C(C)C)C(O)C1 (centres unmarked) [Menthol (Control), menthol, reference compound]	1.0	1.0
C=C(C)C1CCC(C)CC1O (centres unmarked) [Natural Isopulegol, isopulegol]	0.8	0.7
CC1CCC(C(C)C)C(OC(=O)C(C)O)C1 (centres unmarked) [Natural Menthyl Lactate, menthyl lactate]	1.7	1.1
CC1CCC(C(C)C)C(OC(=O)CCC(=O)O)C1 (centres unmarked) [Natural Menthyl Succinate, mono-menthyl succinate]	0.8	0.6
